Article PMC4742142, “Identification of novel, in vivo active Chk1 inhibitors utilizing structure guided drug design” (Oncotarget, 2015)

Experiments:
A549 = assay: Potentiation assay (MTS, 72 hours); format: cell-based, human; settings: IC50(cytotoxic agent alone) / IC50(combination treatment)
Protocol: (§1) 5 × 10^3 cells per well were seeded in 96-well plates and incubated overnight. […] The effect on cell proliferation was determined using a CellTiter 96 AQueous One Solution Cell Proliferation Assay (MTS, Promega).

HT29 = assay: Potentiation assay (MTS, 72 hours); format: cell-based, human; settings: IC50(cytotoxic agent alone) / IC50(combination treatment)
Protocol: as §1

HCT116 = assay: Potentiation assay (MTS, 72 hours); format: cell-based, human; settings: IC50(cytotoxic agent alone) / IC50(combination treatment)
Protocol: as §1

SW620 = assay: Potentiation assay (MTS, 72 hours); format: cell-based, human; settings: IC50(cytotoxic agent alone) / IC50(combination treatment)
Protocol: as §1

Colo205 = assay: Potentiation assay (MTS, 72 hours); format: cell-based, human; settings: IC50(cytotoxic agent alone) / IC50(combination treatment)
Protocol: as §1

PC3 = assay: Potentiation assay (MTS, 72 hours); format: cell-based, human; settings: IC50(cytotoxic agent alone) / IC50(combination treatment)
Protocol: as §1

H460 = assay: Potentiation assay (MTS, 72 hours); format: cell-based, human; settings: IC50(cytotoxic agent alone) / IC50(combination treatment)
Protocol: as §1

NCI-H520 = assay: Potentiation assay (MTS, 72 hours); format: cell-based, human; settings: IC50(cytotoxic agent alone) / IC50(combination treatment)
Protocol: as §1

SW620 xenograft = SW620 xenograft antitumor efficacy; settings: for Median TTE: SW620, 100 mg/kg irinotecan alone (V158411 0 mg/kg); for %TGD / T-C: SW620, 100 mg/kg irinotecan alone
From the text: (§2) Xenograft studies were undertaken by Charles River Laboratories Discovery Services, North Carolina. On the day of tumor cell implant, Colo205 cells were harvested and resuspended in 50% Matrigel matrix (BD Biosciences) in PBS at a concentration of 5 × 10^6 cells/mL. Each test mouse received 1 × 10^6 Colo205 cells implanted subcutaneously (SC) in the flank of female athymic nude mice (HRLN or NCr nu/nu), and tumor growth was monitored as the average size approached 100-150 mm^3. The SW620 tumor line was maintained by serial SC transplantation in female athymic nude mice (HRLN nu/nu). Tumor fragments, approximately 1 mm^3 each, were implanted SC into the right flank of each animal and allowed to grow towards a target size of 100-150 mm^3. On day 1 of the study, tumors were randomized into treatment groups before compound administration.
(§3) V158411 was formulated in D5W and administered via IV injection into the tail vein. Cyclic treatment regimens were followed and treatment ranged from 2-3 cycles.
(§4) Tumor size was measured with electronic calipers and tumor volume calculated according to the formula ((width × width) × length) /2.
(§5) The study endpoint was defined as a tumor volume of 750 mm^3 for Colo205 or 1500 mm^3 for SW620, or day 60, whichever came first. Each animal was euthanized when its' tumor reached this endpoint. The time to endpoint (TTE) for each mouse was calculated from the equation TTE = (log10(endpoint volume)-b)/m where b is the intercept and m the slope of the line obtained by linear regression of a log-transformed tumor growth data set.

Colo205 xenografts = assay: Colo205 xenograft antitumor efficacy; format: in vivo; settings: Colo205, 75 mg/kg IP irinotecan alone (V158411 0 mg/kg)
From the text: as §2, §3, §4, §5

Chk1 = molecular target: T1, Chk1 (Homo sapiens, UniProt O14757); assay: In vitro kinase assay, Chk1; format: biochemical; settings: for LE: ligand efficiency, Chk1
T1 sequence (O14757 1-476): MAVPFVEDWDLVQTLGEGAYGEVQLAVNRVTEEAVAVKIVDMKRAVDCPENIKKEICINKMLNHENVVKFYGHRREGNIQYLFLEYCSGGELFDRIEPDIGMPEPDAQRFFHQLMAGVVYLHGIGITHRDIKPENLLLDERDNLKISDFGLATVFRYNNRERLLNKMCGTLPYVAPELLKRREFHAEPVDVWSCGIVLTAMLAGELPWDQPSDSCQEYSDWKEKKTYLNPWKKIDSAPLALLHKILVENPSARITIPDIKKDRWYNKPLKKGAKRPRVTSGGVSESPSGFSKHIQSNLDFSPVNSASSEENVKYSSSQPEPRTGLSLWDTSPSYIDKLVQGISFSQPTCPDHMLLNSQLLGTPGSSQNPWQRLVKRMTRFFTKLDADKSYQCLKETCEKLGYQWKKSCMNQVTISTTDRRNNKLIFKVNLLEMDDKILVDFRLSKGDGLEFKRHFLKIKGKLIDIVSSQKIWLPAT
Protocol: Kinase assays were performed as previously described.

IC50 (Chk1) | Structure (SMILES) | Fold Potentiation by V158411 (400nM) (A549) | Fold Potentiation by V158411 (400nM) (HT29) | Fold Potentiation by V158411 (400nM) (HCT116) | Fold Potentiation by V158411 (400nM) (SW620) | Fold Potentiation by V158411 (400nM) (Colo205) | Fold Potentiation by V158411 (400nM) (PC3) | Fold Potentiation by V158411 (400nM) (H460) | Fold Potentiation by V158411 (400nM) (NCI-H520) | other results
– | CC[C@@]1(O)C(=O)OCc2c1cc1n(c2=O)Cc2cc3ccccc3nc2-1 [Camptothecin] | 0.7 fold | 11.4 fold | 0.8 fold | 10.6 fold | 6.0 fold | 6.3 fold | 0.8 fold | 1.8 fold | –
– | N.N.[Cl][Pt][Cl] [Cisplatin] | 0.8 fold | 10.1 fold | 0.6 fold | 2.5 fold | 5.3 fold | 1.7 fold | 0.7 fold | 1.9 fold | –
– | Nc1ccn([C@@H]2O[C@H](CO)[C@@H](O)C2(F)F)c(=O)n1 [Gemcitabine] | 4.5 fold | 27.1 fold | 1.5 fold | 3.0 fold | 8.4 fold | 6.7 fold | 4.5 fold | 8.9 fold | –
– | CCc1c2c(nc3ccc(OC(=O)N4CCC(N5CCCCC5)CC4)cc13)-c1cc3c(c(=O)n1C2)COC(=O)[C@]3(O)CC [Irinotecan, reference compound] | – | – | – | – | – | – | – | – | Median TTE (SW620 xenograft; study with 30 mg/kg V158411, endpoint 1500 mm^3): 24.1 days; Median TTE (SW620 xenograft; study with 60 mg/kg V158411, endpoint 1500 mm^3): 24.1 days; %TGD (SW620 xenograft; study with 30 mg/kg V158411): 81%; T-C (SW620 xenograft; study with 30 mg/kg V158411): 10.8; %TGD (SW620 xenograft; study with 60 mg/kg V158411): 75%; T-C (SW620 xenograft; study with 60 mg/kg V158411): 10.3; %TGD (Colo205 xenografts): 78%; T-C (Colo205 xenografts): 15.5; Median TTE (Colo205 xenografts; q7d 3 cycles, endpoint 750 mm^3): 35.4 days
– | CCc1c2c(nc3ccc(O)cc13)-c1cc3c(c(=O)n1C2)COC(=O)[C@]3(O)CC [SN38] | – | 18.7 fold | 1.3 fold | 7.6 fold | > 10 fold | > 10 fold | 1.0 fold | – | –
~100 µM | O=c1[nH]cccc1-c1nc2ccccc2[nH]1 [VER-154637] | – | – | – | – | – | – | – | – | LE (Chk1): > 0.30
4.2 µM | CCNC(=O)c1c[nH]c(=O)c(-c2cc3ccccc3[nH]2)c1 [VER-154931] | – | – | – | – | – | – | – | – | Chk1 IC50 (Chk1): low μM inhibitor
> 400 µM | Cn1cc(NC(=O)c2c[nH]c(=O)c(-c3cc4ccccc4[nH]3)c2)cn1 [VER-155175] | – | – | – | – | – | – | – | – | Chk1 IC50 (Chk1): disappointing affinity
0.017 µM | O=C(Nc1cnn(Cc2ccccc2)c1)c1c[nH]c(=O)c(-c2cc3ccccc3[nH]2)c1 [VER-155422] | – | – | – | – | – | – | – | – | LE (Chk1): 0.35
0.0076 µM | O=C(Nc1c[nH]c(=O)c(-c2cc3ccccc3[nH]2)c1)c1cnn(Cc2ccccc2)c1 [VER-155991] | – | – | – | – | – | – | – | – | increase in potency (Chk1; Chk1 IC50, inversion of the amide linker, versus VER-155422): 2 fold
